Source: patent US7964531B2, “3-phenoxy-4-pyridazinol derivatives and herbicidal composition containing the same” (Mitsui Chemicals Agro, Inc., priority 2001, dated 2011)

Experiments:
Assay type in all cases: in vivo
Cyperus serotinus [1] = assay: Test Example 1: herbicidal effects, paddy-field pot test; details: wettable powder applied 3 days after transplanting, judged after 25 days
How it was run: (§1)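 Greenhouse, flooded paddy soil; weeds from seed (top 1 cm), C. serotinus from germinated tubers, rice transplanted at 2.2-leaf stage. WP diluted in water, applied to pot day 3 post-transplant. Scored day 25 post-treatment, 0–5 inhibition scale.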

Scirpus joncoides [2] = assay: as above; details: wettable powder applied 3 days after transplanting, judged after 25 days
How it was run: as §1

[3] = system: annual broad-leaved weeds (Lindernia spp., Rotala indica); assay: as above; details: wettable powder applied 3 days after transplanting, judged after 25 days
How it was run: as §1

[4] = system: barnyardgrass (Echinochloa oryzicola Vasing.); assay: as above; details: wettable powder applied 3 days after transplanting, judged after 25 days
How it was run: as §1

[5] = system: transplanted paddy-field rice; assay: Test Example 1: crop injury against transplanted paddy-field rice; details: wettable powder applied 3 days after transplanting, judged after 25 days
How it was run: as §1

barnyardgrass = assay: Test Example 2: herbicidal effects (soil treatment); details: dosage 5 kg/a; soil treatment the day after seeding; judged after 21 days
Excerpt: (§2) Judgment Standard • 0: Growth inhibition rate; 0 to 10% • 1: Growth inhibition rate; 11 to 30% • 2: Growth inhibition rate; 31 to 50% • 3: Growth inhibition rate; 51 to 70% • 4: Growth inhibition rate; 71 to 90% • 5: Growth inhibition rate; 91 to 100%.
(§3) Upland soil was filled in 150 cm^2 pot, and seeds of barnyardgrass and indian mustard (Brassica juncea (L.) Czern. et Coss) were sowed, and grown in a greenhouse. At the next day of seeding, a predetermined chemical dosage of the wettable powder prepared in accordance with Preparation example 1 was diluted in water and applied to soil surface. After 21 days from the treatment, herbicidal effects were judged in accordance with the judgment standard of Test example 1, and the results were shown in Table 3.

[6] = system: indian mustard (Brassica juncea (L.) Czern. et Coss); assay: as above; details: dosage 5 kg/a; soil treatment the day after seeding; judged after 21 days
Excerpt: as §2, §3

Cyperus serotinus [7] = assay: Test Example 4: herbicidal effects of mixed wettable powder, paddy-field pot test; details: no second compound, after 25 days
How it was run: (§4)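 Flooded greenhouse pots of paddy soil were sown in the top 1 cm with dormancy-broken weed seeds and planted with tubers, and 2.2-leaf rice was transplanted. Three days later, water-diluted wettable powder was applied at set dosages, and growth inhibition was rated 25 days after that on a 0 (0–15%) to 5 (96–100%) scale.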

Eleocharis kuroguwai = assay: as above; details: no second compound, after 25 days
How it was run: as §4

Sagittaria pygmaea = assay: as above; details: no second compound, after 25 days
How it was run: as §4

Scirpus joncoides [8] = assay: as above; details: no second compound, after 25 days
How it was run: as §4

[9] = system: annual broad-leaved weeds (Lindernia spp. and Rotala indica); assay: as above; details: no second compound, after 25 days
How it was run: as §4

[10] = system: barnyardgrass (Echinochloa oryzicola Vasing.); assay: as above; details: no second compound, after 25 days
How it was run: as §4

[11] = system: transplanted paddy-field rice; assay: Test Example 4: crop injury against transplanted paddy-field rice; details: no second compound, after 25 days
How it was run: as §4

SMILES	Herbicidal effects Cyperus serotinus (Cyperus serotinus [1]; chemical dosage 10 g/a)	Herbicidal effects Cyperus serotinus (Cyperus serotinus [1]; chemical dosage 20 g/a)	Herbicidal effects Scirpus joncoides (Scirpus joncoides [2]; chemical dosage 10 g/a)	Herbicidal effects Scirpus joncoides (Scirpus joncoides [2]; chemical dosage 20 g/a)	Herbicidal effects Broad leaf ([3]; chemical dosage 10 g/a)	Herbicidal effects Broad leaf ([3]; chemical dosage 20 g/a)	Herbicidal effects Barnyard grass ([4]; chemical dosage 10 g/a)	Herbicidal effects Barnyard grass ([4]; chemical dosage 20 g/a)	Crop injury against transplanted rice ([5]; chemical dosage 10 g/a)	Crop injury against transplanted rice ([5]; chemical dosage 20 g/a)	Herbicidal effects Barnyard-grass (barnyardgrass)	Herbicidal effects indian mustard [6]	Herbicidal effects Cyperus serotinus (Cyperus serotinus [7]; derivative 5 g/a)	Herbicidal effects Cyperus serotinus (Cyperus serotinus [7]; derivative 10 g/a)	Herbicidal effects Eleocharis kuroguwai (Eleocharis kuroguwai; derivative 5 g/a)	Herbicidal effects Eleocharis kuroguwai (Eleocharis kuroguwai; derivative 10 g/a)	Herbicidal effects Sagittaria pygmaea (Sagittaria pygmaea; derivative 5 g/a)	Herbicidal effects Sagittaria pygmaea (Sagittaria pygmaea; derivative 10 g/a)	Herbicidal effects Scirpus joncoides (Scirpus joncoides [8]; derivative 5 g/a)	Herbicidal effects Scirpus joncoides (Scirpus joncoides [8]; derivative 10 g/a)	also measured
Oc1cc(Cl)nnc1Oc1c(Cl)cccc1C1CC1 [Example 245]	5 (Growth inhibition rate; 91 to 100%)	5 (Growth inhibition rate; 91 to 100%)	5 (Growth inhibition rate; 91 to 100%)	5 (Growth inhibition rate; 91 to 100%)	5 (Growth inhibition rate; 91 to 100%)	5 (Growth inhibition rate; 91 to 100%)	4 (Growth inhibition rate; 71 to 90%)	4 (Growth inhibition rate; 71 to 90%)	0 (Growth inhibition rate; 0 to 10%)	0 (Growth inhibition rate; 0 to 10%)	3 (Growth inhibition rate; 51 to 70%)	5 (Growth inhibition rate; 91 to 100%)	4 (Growth inhibition rate; 7.6 to 95%)	5 (Growth inhibition rate; 96 to 100%)	0 (Growth-inhibition rate; 0 to 15%)	1 (Growth inhibition rate; 16 to 35%)	4 (Growth inhibition rate; 7.6 to 95%)	5 (Growth inhibition rate; 96 to 100%)	5 (Growth inhibition rate; 96 to 100%)	5 (Growth inhibition rate; 96 to 100%)	Herbicidal effects Broad leaf ([9]; derivative 5 g/a): 5 (Growth inhibition rate; 96 to 100%); Herbicidal effects Broad leaf ([9]; derivative 10 g/a): 5 (Growth inhibition rate; 96 to 100%); Herbicidal effects Barnyard grass ([10]; derivative 5 g/a): 3 (Growth inhibition rate; 56 to 75%); Herbicidal effects Barnyard grass ([10]; derivative 10 g/a): 4 (Growth inhibition rate; 7.6 to 95%); Crop injury against transplanted rice ([11]; derivative 5 g/a): 0 (Growth-inhibition rate; 0 to 15%); Crop injury against transplanted rice ([11]; derivative 10 g/a): 0 (Growth-inhibition rate; 0 to 15%)
Oc1cc(Cl)nnc1Oc1cccc2c1CCC2 [Example 171]	5 (Growth inhibition rate; 91 to 100%)	5 (Growth inhibition rate; 91 to 100%)	5 (Growth inhibition rate; 91 to 100%)	5 (Growth inhibition rate; 91 to 100%)	5 (Growth inhibition rate; 91 to 100%)	5 (Growth inhibition rate; 91 to 100%)	3 (Growth inhibition rate; 51 to 70%)	4 (Growth inhibition rate; 71 to 90%)	0 (Growth inhibition rate; 0 to 10%)	0 (Growth inhibition rate; 0 to 10%)	5 (Growth inhibition rate; 91 to 100%)	5 (Growth inhibition rate; 91 to 100%)	5 (Growth inhibition rate; 96 to 100%)	5 (Growth inhibition rate; 96 to 100%)	2 (Growth inhibition rate; 36 to 55%)	3 (Growth inhibition rate; 56 to 75%)	5 (Growth inhibition rate; 96 to 100%)	5 (Growth inhibition rate; 96 to 100%)	5 (Growth inhibition rate; 96 to 100%)	5 (Growth inhibition rate; 96 to 100%)	Herbicidal effects Broad leaf ([9]; derivative 5 g/a): 5 (Growth inhibition rate; 96 to 100%); Herbicidal effects Broad leaf ([9]; derivative 10 g/a): 5 (Growth inhibition rate; 96 to 100%); Herbicidal effects Barnyard grass ([10]; derivative 5 g/a): 2 (Growth inhibition rate; 36 to 55%); Herbicidal effects Barnyard grass ([10]; derivative 10 g/a): 3 (Growth inhibition rate; 56 to 75%); Crop injury against transplanted rice ([11]; derivative 5 g/a): 0 (Growth-inhibition rate; 0 to 15%); Crop injury against transplanted rice ([11]; derivative 10 g/a): 0 (Growth-inhibition rate; 0 to 15%)
Cc1cccc(Br)c1Oc1nnc(Cl)cc1O [Example 249]	5 (Growth inhibition rate; 91 to 100%)	5 (Growth inhibition rate; 91 to 100%)	5 (Growth inhibition rate; 91 to 100%)	5 (Growth inhibition rate; 91 to 100%)	5 (Growth inhibition rate; 91 to 100%)	5 (Growth inhibition rate; 91 to 100%)	2 (Growth inhibition rate; 31 to 50%)	3 (Growth inhibition rate; 51 to 70%)	0 (Growth inhibition rate; 0 to 10%)	3 (Growth inhibition rate; 51 to 70%)	4 (Growth inhibition rate; 71 to 90%)	5 (Growth inhibition rate; 91 to 100%)	5 (Growth inhibition rate; 96 to 100%)	5 (Growth inhibition rate; 96 to 100%)	1 (Growth inhibition rate; 16 to 35%)	2 (Growth inhibition rate; 36 to 55%)	5 (Growth inhibition rate; 96 to 100%)	5 (Growth inhibition rate; 96 to 100%)	3 (Growth inhibition rate; 56 to 75%)	5 (Growth inhibition rate; 96 to 100%)	Herbicidal effects Broad leaf ([9]; derivative 5 g/a): 5 (Growth inhibition rate; 96 to 100%); Herbicidal effects Broad leaf ([9]; derivative 10 g/a): 5 (Growth inhibition rate; 96 to 100%); Herbicidal effects Barnyard grass ([10]; derivative 5 g/a): 1 (Growth inhibition rate; 16 to 35%); Herbicidal effects Barnyard grass ([10]; derivative 10 g/a): 2 (Growth inhibition rate; 36 to 55%); Crop injury against transplanted rice ([11]; derivative 5 g/a): 0 (Growth-inhibition rate; 0 to 15%); Crop injury against transplanted rice ([11]; derivative 10 g/a): 0 (Growth-inhibition rate; 0 to 15%)
